Assay results taken from ChEMBL document CHEMBL2346515, “Discovery of 4-alkylamino-7-aryl-3-cyanoquinoline LRRK2 kinase inhibitors” (Bioorg Med Chem Lett, 2013).
Values belong to the compound of their own block, whether it stands above or below them.

Columns and labels:
[1] = target: T1, Aurora kinase A (Homo sapiens) (UniProt O14965); assay: Inhibition of AURKA (unknown origin) at 10 uM by single point assay
T1 sequence (whole entry): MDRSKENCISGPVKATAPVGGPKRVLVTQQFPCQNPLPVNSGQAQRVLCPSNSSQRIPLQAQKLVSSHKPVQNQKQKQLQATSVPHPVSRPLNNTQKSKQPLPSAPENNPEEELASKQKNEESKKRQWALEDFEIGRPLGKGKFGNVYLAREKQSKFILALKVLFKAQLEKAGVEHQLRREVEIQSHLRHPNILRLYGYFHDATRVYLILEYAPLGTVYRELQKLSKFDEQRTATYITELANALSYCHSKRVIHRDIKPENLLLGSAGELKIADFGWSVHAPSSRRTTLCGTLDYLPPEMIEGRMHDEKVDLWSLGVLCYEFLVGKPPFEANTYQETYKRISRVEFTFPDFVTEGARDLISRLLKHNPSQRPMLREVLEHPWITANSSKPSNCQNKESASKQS

[2] = target: Protein kinase C beta type (Homo sapiens) (UniProt P05771); assay: Inhibition of PKCbeta1 (unknown origin) at 10 uM by single point assay
[3] = target: Serine/threonine-protein kinase PLK1 (Homo sapiens) (UniProt P53350); assay: Inhibition of PLK1 (unknown origin) at 10 uM by single point assay
Serine/threonine-protein kinase PLK1 (Homo sapiens), sequence (P53350 whole entry): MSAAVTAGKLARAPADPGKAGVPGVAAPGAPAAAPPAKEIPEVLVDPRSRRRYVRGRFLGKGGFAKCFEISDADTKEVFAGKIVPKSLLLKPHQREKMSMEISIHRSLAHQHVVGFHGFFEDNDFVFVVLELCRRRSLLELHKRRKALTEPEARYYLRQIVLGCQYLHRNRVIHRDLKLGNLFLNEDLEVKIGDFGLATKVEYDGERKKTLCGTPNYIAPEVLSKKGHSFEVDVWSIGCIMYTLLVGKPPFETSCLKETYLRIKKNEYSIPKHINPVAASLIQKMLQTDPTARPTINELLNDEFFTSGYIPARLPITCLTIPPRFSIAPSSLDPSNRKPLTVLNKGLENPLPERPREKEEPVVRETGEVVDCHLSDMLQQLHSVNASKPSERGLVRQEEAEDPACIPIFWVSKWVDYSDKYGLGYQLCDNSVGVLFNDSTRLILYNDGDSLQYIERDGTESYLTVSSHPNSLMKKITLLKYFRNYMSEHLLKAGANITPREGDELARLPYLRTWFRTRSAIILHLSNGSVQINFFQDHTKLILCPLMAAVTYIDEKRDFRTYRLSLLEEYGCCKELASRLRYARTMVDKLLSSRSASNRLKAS

[4] = target: Receptor-type tyrosine-protein kinase FLT3 (Homo sapiens) (UniProt P36888); assay: Inhibition of FLT3 (unknown origin) at 10 uM by single point assay
[5] = target: Receptor-interacting serine/threonine-protein kinase 2 (Homo sapiens) (UniProt O43353); assay: Inhibition of RIPK2 (unknown origin) at 10 uM by single point assay
Receptor-interacting serine/threonine-protein kinase 2 (Homo sapiens), sequence (O43353 whole entry): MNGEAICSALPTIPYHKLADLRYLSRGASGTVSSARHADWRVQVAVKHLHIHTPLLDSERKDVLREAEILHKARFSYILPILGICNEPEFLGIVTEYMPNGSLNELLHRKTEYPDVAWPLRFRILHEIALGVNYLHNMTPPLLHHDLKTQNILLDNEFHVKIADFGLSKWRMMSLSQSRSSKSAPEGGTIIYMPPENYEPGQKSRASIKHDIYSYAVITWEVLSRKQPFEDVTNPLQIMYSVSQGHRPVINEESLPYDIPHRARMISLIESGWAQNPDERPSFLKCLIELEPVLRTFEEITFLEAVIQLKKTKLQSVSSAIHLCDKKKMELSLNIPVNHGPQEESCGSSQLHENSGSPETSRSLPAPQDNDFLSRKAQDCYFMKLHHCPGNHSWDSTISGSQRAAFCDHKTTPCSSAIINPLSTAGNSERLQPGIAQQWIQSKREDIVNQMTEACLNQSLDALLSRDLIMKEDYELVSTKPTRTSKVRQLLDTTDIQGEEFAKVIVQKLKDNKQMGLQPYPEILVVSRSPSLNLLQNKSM

[6] = target: PI3-kinase p110-alpha/p85-alpha (Homo sapiens) (UniProt P27986+P42336); assay: Inhibition of PIK3CA/PIK3R1 (unknown origin) at 10 uM by single point assay; type: protein-complex assay
[7] = target: Serine/threonine-protein kinase MARK2 (Homo sapiens) (UniProt Q7KZI7); assay: Inhibition of MARK2 (unknown origin) at 10 uM by single point assay
[8] = target: Dual specificity tyrosine-phosphorylation-regulated kinase 1B (Homo sapiens) (UniProt Q9Y463); assay: Inhibition of DYRK1B (unknown origin) at 10 uM by single point assay
[9] = target: T2, Mitogen-activated protein kinase kinase kinase 7 (Homo sapiens) (UniProt O43318); assay: Inhibition of MAP3K7 (unknown origin) at 10 uM by single point assay
T2 sequence (whole entry): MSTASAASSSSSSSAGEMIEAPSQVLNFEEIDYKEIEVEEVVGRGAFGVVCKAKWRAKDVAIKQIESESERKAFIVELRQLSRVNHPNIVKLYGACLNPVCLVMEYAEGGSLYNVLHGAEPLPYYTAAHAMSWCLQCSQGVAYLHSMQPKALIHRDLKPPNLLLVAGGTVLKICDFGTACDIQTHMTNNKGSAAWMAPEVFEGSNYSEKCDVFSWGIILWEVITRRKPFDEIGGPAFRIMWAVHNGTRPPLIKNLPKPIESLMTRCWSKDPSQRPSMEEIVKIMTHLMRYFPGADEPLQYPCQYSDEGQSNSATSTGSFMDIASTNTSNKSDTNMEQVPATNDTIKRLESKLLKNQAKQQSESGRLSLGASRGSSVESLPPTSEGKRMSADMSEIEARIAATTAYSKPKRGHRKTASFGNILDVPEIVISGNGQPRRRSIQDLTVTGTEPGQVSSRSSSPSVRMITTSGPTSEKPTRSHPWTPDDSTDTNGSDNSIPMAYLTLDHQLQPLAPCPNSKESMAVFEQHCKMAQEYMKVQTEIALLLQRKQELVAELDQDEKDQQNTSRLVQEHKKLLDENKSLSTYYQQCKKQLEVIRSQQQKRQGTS

[10] = target: RAF proto-oncogene serine/threonine-protein kinase (Homo sapiens) (UniProt P04049); assay: Inhibition of RAF1 (unknown origin) at 10 uM by single point assay
RAF proto-oncogene serine/threonine-protein kinase (Homo sapiens), sequence (P04049 whole entry): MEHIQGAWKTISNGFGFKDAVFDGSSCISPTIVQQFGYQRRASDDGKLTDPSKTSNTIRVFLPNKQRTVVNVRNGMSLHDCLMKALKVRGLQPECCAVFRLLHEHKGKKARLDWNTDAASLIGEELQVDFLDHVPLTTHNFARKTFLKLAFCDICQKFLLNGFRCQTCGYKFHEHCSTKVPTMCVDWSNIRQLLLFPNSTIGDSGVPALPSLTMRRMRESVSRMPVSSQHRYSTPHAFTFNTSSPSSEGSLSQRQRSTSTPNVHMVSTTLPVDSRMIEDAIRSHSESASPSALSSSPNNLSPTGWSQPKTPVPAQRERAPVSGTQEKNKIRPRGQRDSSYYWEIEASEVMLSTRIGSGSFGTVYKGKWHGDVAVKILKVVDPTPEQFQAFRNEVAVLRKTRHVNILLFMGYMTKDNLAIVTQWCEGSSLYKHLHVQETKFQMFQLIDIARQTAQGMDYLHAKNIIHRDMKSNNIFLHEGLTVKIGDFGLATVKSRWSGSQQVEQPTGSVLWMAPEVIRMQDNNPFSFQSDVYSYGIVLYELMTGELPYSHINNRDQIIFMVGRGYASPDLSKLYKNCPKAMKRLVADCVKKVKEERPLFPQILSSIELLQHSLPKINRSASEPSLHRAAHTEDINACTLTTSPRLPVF

[11] = target: T3, Interleukin-1 receptor-associated kinase 4 (Homo sapiens) (UniProt Q9NWZ3); assay: Inhibition of IRAK4 (unknown origin) at 10 uM by single point assay
T3 sequence (whole entry): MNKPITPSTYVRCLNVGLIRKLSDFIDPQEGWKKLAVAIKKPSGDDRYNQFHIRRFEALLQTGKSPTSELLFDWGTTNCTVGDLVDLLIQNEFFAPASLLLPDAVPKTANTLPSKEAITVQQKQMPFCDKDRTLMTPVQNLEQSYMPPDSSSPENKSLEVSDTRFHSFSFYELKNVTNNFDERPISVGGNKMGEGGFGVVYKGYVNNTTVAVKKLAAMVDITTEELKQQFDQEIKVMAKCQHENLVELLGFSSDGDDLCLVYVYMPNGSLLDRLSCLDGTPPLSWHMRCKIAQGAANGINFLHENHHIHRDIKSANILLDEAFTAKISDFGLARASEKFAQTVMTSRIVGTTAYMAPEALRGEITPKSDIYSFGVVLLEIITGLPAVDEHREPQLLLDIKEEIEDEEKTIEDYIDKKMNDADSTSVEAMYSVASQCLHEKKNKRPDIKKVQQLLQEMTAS

[12] = target: Cyclin-dependent kinase 2/cyclin A (Homo sapiens) (UniProt P24941+P20248+P78396); assay: Inhibition of CDK2/cyclin A (unknown origin) at 10 uM by single point assay; type: protein-complex assay
[13] = target: Tyrosine-protein kinase Lck (Homo sapiens) (UniProt P06239); assay: Inhibition of LCK (unknown origin) at 1 uM by single point assay
Tyrosine-protein kinase Lck (Homo sapiens), sequence (P06239 2-509 limits assumed): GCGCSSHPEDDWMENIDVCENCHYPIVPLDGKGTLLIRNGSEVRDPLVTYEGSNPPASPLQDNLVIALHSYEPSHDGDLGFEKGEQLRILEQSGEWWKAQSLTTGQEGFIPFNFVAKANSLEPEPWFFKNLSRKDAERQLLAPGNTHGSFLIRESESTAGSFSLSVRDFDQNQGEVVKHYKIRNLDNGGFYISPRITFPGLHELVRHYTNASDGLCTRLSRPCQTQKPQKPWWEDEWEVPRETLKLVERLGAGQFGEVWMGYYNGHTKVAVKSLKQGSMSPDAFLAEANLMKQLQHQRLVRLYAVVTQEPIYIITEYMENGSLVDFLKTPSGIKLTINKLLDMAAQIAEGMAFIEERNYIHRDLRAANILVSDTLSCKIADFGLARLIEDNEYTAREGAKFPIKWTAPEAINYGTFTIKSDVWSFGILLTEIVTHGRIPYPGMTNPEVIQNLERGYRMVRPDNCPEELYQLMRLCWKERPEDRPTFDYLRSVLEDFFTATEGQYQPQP

[14] = target: Receptor-interacting serine/threonine-protein kinase 2 (Homo sapiens) (UniProt O43353); assay: Inhibition of RIPK2 (unknown origin) at 1 uM by single point assay
[15] = target: Proto-oncogene tyrosine-protein kinase receptor Ret (Homo sapiens) (UniProt P07949); assay: Inhibition of RET (unknown origin) at 1 uM by single point assay
Proto-oncogene tyrosine-protein kinase receptor Ret (Homo sapiens), sequence (P07949 whole entry): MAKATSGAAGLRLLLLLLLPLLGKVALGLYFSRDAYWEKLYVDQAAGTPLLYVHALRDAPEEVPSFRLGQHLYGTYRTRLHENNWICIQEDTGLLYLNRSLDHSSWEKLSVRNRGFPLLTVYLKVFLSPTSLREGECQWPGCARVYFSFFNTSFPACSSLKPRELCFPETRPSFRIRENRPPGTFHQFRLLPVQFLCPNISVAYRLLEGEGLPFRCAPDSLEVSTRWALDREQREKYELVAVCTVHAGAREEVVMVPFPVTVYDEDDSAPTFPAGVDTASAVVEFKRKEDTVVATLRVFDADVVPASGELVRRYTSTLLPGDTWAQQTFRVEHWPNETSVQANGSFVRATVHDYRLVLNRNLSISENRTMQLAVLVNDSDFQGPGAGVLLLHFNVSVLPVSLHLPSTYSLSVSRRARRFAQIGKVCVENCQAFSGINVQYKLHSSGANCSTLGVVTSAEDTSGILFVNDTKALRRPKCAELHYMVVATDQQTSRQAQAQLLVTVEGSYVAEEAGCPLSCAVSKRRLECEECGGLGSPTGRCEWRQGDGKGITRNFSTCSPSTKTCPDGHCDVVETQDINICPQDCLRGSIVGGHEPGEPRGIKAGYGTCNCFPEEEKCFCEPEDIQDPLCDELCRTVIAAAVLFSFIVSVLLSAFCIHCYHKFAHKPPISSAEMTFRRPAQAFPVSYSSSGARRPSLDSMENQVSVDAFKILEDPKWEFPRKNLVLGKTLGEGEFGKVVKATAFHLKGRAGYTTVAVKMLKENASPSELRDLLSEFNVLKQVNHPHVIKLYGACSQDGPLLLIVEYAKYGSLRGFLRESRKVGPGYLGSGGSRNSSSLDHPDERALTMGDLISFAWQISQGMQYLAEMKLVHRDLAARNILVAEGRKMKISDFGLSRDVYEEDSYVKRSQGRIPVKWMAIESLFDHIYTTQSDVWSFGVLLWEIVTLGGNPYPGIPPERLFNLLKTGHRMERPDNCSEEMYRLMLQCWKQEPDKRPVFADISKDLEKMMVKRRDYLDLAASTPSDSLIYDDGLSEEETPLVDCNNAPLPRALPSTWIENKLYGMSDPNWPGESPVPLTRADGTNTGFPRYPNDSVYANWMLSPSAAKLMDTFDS

[16] = target: Serine/threonine-protein kinase PLK1 (Homo sapiens) (UniProt P53350); assay: Inhibition of PLK1 (unknown origin) at 1 uM by single point assay
[17] = target: Protein-tyrosine kinase 2-beta (Homo sapiens) (UniProt Q14289); assay: Inhibition of PTK2B (unknown origin) at 1 uM by single point assay
Protein-tyrosine kinase 2-beta (Homo sapiens), sequence (Q14289 whole entry, looked up): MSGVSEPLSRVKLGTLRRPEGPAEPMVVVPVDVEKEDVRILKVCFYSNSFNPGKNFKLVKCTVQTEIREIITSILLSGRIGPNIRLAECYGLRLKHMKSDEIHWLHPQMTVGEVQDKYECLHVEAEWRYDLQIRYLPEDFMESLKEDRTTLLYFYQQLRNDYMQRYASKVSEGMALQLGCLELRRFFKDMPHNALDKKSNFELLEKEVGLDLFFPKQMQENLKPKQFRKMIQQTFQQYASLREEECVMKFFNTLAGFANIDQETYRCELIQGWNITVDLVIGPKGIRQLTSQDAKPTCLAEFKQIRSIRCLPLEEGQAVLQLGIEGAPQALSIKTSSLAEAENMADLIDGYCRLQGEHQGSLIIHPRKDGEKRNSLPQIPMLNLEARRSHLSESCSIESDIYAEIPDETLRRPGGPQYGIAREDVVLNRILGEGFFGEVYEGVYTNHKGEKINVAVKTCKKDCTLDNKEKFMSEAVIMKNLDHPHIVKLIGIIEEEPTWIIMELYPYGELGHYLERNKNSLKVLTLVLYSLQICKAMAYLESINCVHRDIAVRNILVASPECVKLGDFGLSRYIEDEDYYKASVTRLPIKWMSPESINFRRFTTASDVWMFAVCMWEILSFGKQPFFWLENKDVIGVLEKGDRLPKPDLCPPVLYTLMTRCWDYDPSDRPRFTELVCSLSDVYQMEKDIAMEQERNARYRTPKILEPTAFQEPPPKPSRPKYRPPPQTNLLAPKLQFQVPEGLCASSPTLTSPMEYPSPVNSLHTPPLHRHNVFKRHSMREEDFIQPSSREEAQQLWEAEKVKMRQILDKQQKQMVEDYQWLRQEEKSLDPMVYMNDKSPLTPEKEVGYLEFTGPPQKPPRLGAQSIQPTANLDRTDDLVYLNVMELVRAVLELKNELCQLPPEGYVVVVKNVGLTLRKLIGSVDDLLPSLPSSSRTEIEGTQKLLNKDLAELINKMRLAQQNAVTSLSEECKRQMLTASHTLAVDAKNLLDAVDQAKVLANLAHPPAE

[18] = target: Serine/threonine-protein kinase 16 (Homo sapiens) (UniProt O75716); assay: Inhibition of STK16 (unknown origin) at 1 uM by single point assay
Serine/threonine-protein kinase 16 (Homo sapiens), sequence (O75716 whole entry): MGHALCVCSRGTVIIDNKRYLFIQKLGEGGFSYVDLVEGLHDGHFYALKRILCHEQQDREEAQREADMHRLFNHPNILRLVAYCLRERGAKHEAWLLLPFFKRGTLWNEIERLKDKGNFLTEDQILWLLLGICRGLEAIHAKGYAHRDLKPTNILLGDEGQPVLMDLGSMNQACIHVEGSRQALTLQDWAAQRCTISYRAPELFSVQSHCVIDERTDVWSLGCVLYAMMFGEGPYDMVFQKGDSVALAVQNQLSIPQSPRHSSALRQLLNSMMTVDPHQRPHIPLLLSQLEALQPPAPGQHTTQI

[19] = Ratio of drug uptake in brain to plasma of mouse expressing mouse LRRK2 G2019S mutant at 30 mg/kg, po; type: ADME, organism-based; set-up: dose 30 mg/kg, route oral; settings: read-out: BPR
Mus musculus [20] = assay: In vivo inhibition of mouse LRRK2 G2019S mutant phosphorylation at Ser935 expressed in mouse brain at 30 mg/kg, po measured after 3 hrs by ELISA; type: functional
Mus musculus [21] = assay: In vivo inhibition of mouse LRRK2 G2019S mutant phosphorylation at Ser935 expressed in mouse brain at 100 mg/kg, po measured after 3 hrs by ELISA; type: functional
Brain = assay: Drug uptake in brain of mouse expressing mouse LRRK2 G2019S mutant at 100 mg/kg, po; type: ADME, organism-based; set-up: dose 100 mg/kg, route oral; settings: in vivo

inhibition [1]: 67%
inhibition [2]: -2%
inhibition [3]: 8%
inhibition [4]: 44%
inhibition [5]: 56%
inhibition [6]: 13%
inhibition [7]: 40%
inhibition [8]: 24%
inhibition [9]: -5%
inhibition [10]: 6%
inhibition [11]: 10%
inhibition [12]: 0%
Compound: C[C@@H](Nc1c(C#N)cnc2cc(-c3ccc(-n4ccoc4=O)cc3)ccc12)C1CC1

inhibition [13]: 26%
inhibition [14]: 17%
inhibition [15]: 43%
inhibition [16]: 20%
inhibition [17]: 33%
inhibition [18]: 3%
Compound: CC(C)Nc1c(C#N)cnc2cc(-c3ccc(S(C)(=O)=O)cc3)ccc12

Kp [19]: 1.2
inhibition [13]: 31%
inhibition [14]: 77%
inhibition [15]: 41%
inhibition [16]: 24%
Drug uptake (Brain): 81.1 ng/mL
inhibition [17]: 12%
inhibition [18]: 10%
Compound: CC(C)Nc1c(C#N)cnc2cc(-c3cnn(C)c3)ccc12
inhibition in vivo at 30 mg/kg (Mus musculus [20]): 30%
inhibition in vivo at 100 mg/kg (Mus musculus [21]): 44%
